The values below are quoted from earlier work in patent publication US20070135423A1, “E-fluoro-4-(pyridin-2-yl)-piperidine-1-carboxamide derivatives and related compounds which modulate the function of the vanilloid-1 receptor (vr1) for the treatment of pain” (priority 2003, published 2007).

This data set deals with VR1 (Rattus norvegicus, UniProt O35433). The note with it: Wahl et al., Mol. Pharmacol, 59:9, 2001.
Chain of VR1 (O35433 whole entry): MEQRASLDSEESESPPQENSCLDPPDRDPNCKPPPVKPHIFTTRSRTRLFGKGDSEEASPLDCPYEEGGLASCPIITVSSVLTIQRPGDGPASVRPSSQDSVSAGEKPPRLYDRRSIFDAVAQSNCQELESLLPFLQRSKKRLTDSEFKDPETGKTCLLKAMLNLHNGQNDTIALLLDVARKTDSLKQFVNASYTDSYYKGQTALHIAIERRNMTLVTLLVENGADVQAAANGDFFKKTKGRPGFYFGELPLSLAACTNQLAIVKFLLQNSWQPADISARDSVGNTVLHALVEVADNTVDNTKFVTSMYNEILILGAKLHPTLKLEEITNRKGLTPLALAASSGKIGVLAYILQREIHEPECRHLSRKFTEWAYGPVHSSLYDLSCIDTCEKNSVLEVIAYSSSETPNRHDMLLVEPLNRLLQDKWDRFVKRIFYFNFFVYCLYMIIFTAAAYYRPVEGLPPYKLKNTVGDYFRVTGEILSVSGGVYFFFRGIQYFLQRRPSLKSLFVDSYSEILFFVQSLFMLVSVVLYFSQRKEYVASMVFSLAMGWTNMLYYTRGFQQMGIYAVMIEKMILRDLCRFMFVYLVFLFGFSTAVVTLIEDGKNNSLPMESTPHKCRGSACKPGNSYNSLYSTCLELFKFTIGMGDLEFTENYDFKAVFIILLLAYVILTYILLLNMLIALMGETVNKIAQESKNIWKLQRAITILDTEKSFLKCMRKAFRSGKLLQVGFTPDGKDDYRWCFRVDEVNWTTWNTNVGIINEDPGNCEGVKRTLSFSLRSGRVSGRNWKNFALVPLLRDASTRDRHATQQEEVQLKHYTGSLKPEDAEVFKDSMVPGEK

Consider `C=C(C)[C@]12C[C@@H](C)[C@@]34O[C@](Cc5ccccc5)(O[C@@H]1[C@@H]3C=C(COC(=O)Cc1cc(I)c(O)c(OC)c1)C[C@]1(O)C(=O)C(C)=C[C@@H]41)O2` [Iodo-resiniferatoxin], for which the “VR1 antagonist potency (in words)” value is reported as “nanomolar antagonist”.
